Data from ChEMBL document CHEMBL1201862, “PubChem BioAssay data set” (2004).
The source made the active and inactive calls.

Legend:
[1] = luciferase reporter signal suppression in cells – H4 neuroglioma cells, luminescence, dose response (AID 1990); format: functional, cell-based
[2] = fluconazole-exposed Candida albicans growth modulators – fluorescence, retest, confirmation (AID 2467); format: functional, cell-based
[3] = biological target: T1, Neuropeptide Y receptor type 1 (Homo sapiens, UniProt P25929); assay: IC50 of human NPY-Y1 blockers – cell-based, dose response (AID 1277); format: functional
T1 sequence (P25929 whole entry): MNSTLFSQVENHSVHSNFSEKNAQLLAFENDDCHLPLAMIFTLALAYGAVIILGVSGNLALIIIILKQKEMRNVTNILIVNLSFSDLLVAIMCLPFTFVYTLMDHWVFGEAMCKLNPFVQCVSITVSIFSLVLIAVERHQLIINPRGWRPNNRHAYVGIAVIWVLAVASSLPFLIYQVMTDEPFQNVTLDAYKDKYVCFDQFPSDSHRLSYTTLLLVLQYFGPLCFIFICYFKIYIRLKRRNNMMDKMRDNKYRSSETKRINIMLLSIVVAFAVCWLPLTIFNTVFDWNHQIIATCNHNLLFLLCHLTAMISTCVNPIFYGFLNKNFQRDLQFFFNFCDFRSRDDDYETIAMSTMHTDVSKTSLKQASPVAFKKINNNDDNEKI

cells [4] = conditions: HEK293
[5] = alpha-synuclein stem-loop luciferase translation blockers – H4 neuroglioma cells, luminescence, confirmation (AID 1988); format: functional, cell-based
[6] = Trypanosoma cruzi growth suppression in host cells – NIH3T3 host cells, beta-gal luminescence, confirmation (AID 2044); format: functional, cell-based;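 further: intracellular parasites grown in NIH/3T3 mouse fibroblasts as host cells; luminescent beta-galactosidase reporter signal from transgenic T. cruzi replicating inside host cells; inhibitors lower the luminescence signal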
[7] = biological target: ATP-dependent molecular chaperone HSP82 (Candida albicans (strain WO-1) (Yeast), UniProt C4YTQ8); assay: steroid-induced GRE reporter decrease in yeast – S. cerevisiae, luminescence, Hsp90 inhibitor project, dose response (AID 2400); format: functional, cell-based;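 further: beta-galactosidase luminescence from glucocorticoid response element reporter as proxy for Hsp90 function; inhibitor potency where signal loss means Hsp90 inhibition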
Sequence of ATP-dependent molecular chaperone HSP82 (C4YTQ8 whole entry): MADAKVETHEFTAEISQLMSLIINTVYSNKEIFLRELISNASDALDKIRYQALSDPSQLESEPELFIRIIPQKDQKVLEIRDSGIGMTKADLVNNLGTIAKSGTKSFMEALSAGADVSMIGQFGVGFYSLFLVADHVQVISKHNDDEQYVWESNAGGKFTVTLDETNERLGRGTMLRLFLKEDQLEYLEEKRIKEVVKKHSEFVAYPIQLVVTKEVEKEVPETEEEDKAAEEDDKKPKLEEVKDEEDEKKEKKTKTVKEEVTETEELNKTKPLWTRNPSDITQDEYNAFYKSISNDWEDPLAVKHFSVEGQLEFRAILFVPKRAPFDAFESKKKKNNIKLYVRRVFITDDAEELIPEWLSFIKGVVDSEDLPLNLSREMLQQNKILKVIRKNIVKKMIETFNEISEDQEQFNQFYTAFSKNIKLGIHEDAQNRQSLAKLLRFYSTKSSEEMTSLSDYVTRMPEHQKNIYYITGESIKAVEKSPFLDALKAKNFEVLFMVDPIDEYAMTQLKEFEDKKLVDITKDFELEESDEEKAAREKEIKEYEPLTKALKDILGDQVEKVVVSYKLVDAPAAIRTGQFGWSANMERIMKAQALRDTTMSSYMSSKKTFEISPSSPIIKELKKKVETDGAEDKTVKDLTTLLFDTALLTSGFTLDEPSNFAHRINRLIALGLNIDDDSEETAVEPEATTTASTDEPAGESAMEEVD

[8] = NIH-3T3 fibroblast cytotoxicity, dose response, cytotoxicity control, cell-based, fluorescence, Alamar Blue, secondary assay (AID 2327); format: functional;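 further: NIH-3T3 mouse fibroblasts cultured with fluconazole at 8 µg/mL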
[9] = biological target: T2, Serine/threonine-protein phosphatase (Candida dubliniensis (strain CD36 / CBS 7987 / NCPF 3949 / NRRLY-17841) (Yeast), UniProt B9W6M3); assay: blockers of CaCl2-induced CDRE-lacZ signaling – S. cerevisiae, luminescence, secondary, dose response (AID 2388); format: functional, cell-based;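 further: yeast reporter cells carrying a calcineurin-responsive lacZ construct stimulated with calcium chloride; luminescent beta-galactosidase reporter signal in whole cells rather than isolated phosphatase activity; potency for inhibition where a drop in reporter signal means calcineurin blockade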
T2 sequence (B9W6M3 whole entry): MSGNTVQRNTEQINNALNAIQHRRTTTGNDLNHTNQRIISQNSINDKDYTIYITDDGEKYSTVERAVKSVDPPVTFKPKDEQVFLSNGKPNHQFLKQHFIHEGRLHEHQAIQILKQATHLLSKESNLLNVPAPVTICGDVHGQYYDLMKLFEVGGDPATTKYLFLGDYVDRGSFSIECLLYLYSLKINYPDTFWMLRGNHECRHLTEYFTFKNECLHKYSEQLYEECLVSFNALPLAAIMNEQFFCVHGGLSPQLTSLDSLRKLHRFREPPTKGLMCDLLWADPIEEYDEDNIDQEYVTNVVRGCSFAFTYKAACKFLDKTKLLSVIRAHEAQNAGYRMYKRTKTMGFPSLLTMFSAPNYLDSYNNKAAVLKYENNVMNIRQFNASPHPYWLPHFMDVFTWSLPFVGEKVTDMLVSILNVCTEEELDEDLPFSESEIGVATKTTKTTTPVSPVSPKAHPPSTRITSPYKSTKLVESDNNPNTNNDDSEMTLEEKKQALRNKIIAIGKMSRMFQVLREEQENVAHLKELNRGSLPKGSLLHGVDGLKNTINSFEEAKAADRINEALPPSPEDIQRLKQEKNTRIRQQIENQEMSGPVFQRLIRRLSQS

cells [10] = format: functional, cell-based; conditions: HEK-CNG
[11] = biological target: T3, DNA repair protein RAD52 homolog (Homo sapiens, UniProt P43351); format: functional, biochemical
T3 sequence (P43351 whole entry): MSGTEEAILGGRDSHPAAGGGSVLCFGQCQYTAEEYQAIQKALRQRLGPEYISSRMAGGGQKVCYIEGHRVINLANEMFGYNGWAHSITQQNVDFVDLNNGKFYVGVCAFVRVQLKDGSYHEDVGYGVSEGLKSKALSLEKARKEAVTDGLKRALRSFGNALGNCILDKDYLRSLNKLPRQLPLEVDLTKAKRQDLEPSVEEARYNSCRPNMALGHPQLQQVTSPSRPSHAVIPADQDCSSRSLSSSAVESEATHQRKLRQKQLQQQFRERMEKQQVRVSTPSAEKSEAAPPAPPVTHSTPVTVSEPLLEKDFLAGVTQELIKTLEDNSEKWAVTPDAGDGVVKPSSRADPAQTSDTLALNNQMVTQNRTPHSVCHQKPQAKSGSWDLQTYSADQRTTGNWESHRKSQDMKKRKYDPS

Galanin receptor type 3 = biological target: T4, Galanin receptor type 3 (Homo sapiens, UniProt O60755); assay: Fluorescence-based cell-based primary high throughput dose response assay to identify antagonists of the Galanin Receptor 3 (GalR3).; format: functional
T4 sequence (O60755 whole entry): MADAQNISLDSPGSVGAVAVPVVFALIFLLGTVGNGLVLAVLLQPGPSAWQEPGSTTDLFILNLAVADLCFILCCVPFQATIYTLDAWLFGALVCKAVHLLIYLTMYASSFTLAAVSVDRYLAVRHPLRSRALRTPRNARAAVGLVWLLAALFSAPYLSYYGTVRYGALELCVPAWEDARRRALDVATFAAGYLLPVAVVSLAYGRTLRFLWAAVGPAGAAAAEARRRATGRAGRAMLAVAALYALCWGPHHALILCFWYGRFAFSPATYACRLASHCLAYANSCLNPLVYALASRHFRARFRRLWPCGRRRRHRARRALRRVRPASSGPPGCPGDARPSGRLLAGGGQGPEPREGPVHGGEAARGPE

cells [12] = conditions: A549
[13] = biological target: T5, Neuropeptide Y receptor type 2 (Homo sapiens, UniProt P49146); assay: IC50 for human NPY-Y2 blockade – cell-based, counter-screen for NPY-Y1 antagonist project, dose response (AID 1278); format: functional
T5 sequence (P49146 whole entry): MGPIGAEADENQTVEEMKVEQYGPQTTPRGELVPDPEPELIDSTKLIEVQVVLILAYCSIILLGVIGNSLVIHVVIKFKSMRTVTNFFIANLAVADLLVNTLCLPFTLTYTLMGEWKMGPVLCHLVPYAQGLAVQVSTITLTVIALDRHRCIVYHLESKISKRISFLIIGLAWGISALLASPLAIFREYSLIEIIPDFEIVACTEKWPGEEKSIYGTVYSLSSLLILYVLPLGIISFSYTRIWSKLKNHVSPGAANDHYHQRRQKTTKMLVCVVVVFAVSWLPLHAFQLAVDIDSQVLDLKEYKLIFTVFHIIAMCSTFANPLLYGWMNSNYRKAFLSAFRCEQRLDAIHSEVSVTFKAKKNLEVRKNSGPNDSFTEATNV

[14] = viability loss in HepG2 liver cells – cell-based, ATP luminescence, cherry-pick, set 6, cytotoxicity control, dose response (AID 1053125); format: functional
cells [15] = assay: cells
[16] = NIH3T3 cell viability loss – ATP luminescence, mouse fibroblasts, counter-screen, dose response (AID 2010); format: functional, cell-based;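 further: cells exposed to compound for about 90 hours before reading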
[17] = Luminescence Cell-Based Dose Response HTS to Identify Inhibitors of 5'UTR Stem-Loop Driven Prion Protein mRNA Translation in H4 Neuroglioblastoma Cells. [Related pubchem assays: 1827 (Project Summary), 1813 (Primary HTS)]; format: functional

CC[n+]1c(/C=C2\SC(c3ccccc3C)=CN2C)sc2ccccc21
29.6 µM (not active): IC50 [13]
active: EC50 [1] 8.74 µM | EC50 [2] 0.212 µM | IC50 [3] 6.98 µM | AC50 (cells [4]) 2.77 µM | EC50 [5] 0.619 µM | EC50 [6] < 0.1 µM | AC50 [11] 8.2 µM | IC50 (Galanin receptor type 3) 0.404 µM | AC50 (cells [12]) 2.44 µM | AC50 [14] 2.18 µM | EC50 (cells [15]) 0.021 µM | EC50 [16] 7.48 µM | EC50 [17] 8.01 µM
inactive: EC50 [7] > 150 µM | EC50 [8] > 150 µM | EC50 [9] > 180 µM | EC50 (cells [10]) > 29.9 µM
